# Measurements published in patent US20090062355A1, “Pharmaceutical Product” (Takeda Pharmaceutical Company Limited, priority 2006, published 2009).
# pIC50: −log10 of the molar value. Like-named read-outs stand apart in the source and are kept apart here.
# Tested on: Human Peripheral Blood Mononuclear Cell
# Experiment: Suppressive action on production of mediator from human peripheral blood mononuclear cell
# Assay type: cell-based
# Conditions: LPS 10 ng/mL and INFα 1 U/mL, overnight, ELISA
# Experimental: Peripheral blood mononuclear cells were separated from three healthy subjects by a conventional method, suspended in RPMI1640 medium supplemented with 10% inactivated fetal bovine serum, and plated on a 96 well microplate at 8×10^4 cells/well. Test compound 2 (compound 8′ of Reference Example D7), LPS (final concentration 10 ng/mL) and INFα (final concentration 1 U/mL) were added, cultured overnight, and TNF-α, IL-6 and IL-8 in the culture supernatant was quantified using a commercially available ELISA kit. Test substance was dissolved in N,N-dimethylformamide to 10 mM, diluted with the medium to 10-fold concentration of the final concentration and 1/10 thereof was added. Test compound 2 suppressed production of TNFα, IL-6 and IL-8 at an equivalent IC50. In addition, no difference in the suppressive activity was found in the peripheral blood mononuclear cells of the three subjects.
structure (smiles),measurement,setting,value
"CCOC(=O)C1=CCOCC1S(=O)(=O)Nc1ccc(F)cc1Cl (stereo not drawn) [test compound 2, ethyl 3-[(2-chloro-4-fluorophenyl)sulfamoyl]-3,6-dihydro-2H-pyran-4-carboxylate]",pIC50,"subject A, read-out: IC50, IL-6 production",7.44
same,pIC50,"subject A, read-out: IC50, IL-8 production",7.08
same,pIC50,"subject A, read-out: IC50, TNF-α production",7.37
same,pIC50,"subject B, read-out: IC50, IL-6 production",7.29
same,pIC50,"subject B, read-out: IC50, IL-8 production",6.89
same,pIC50,"subject B, read-out: IC50, TNF-α production",7.41
same,pIC50,"subject C, read-out: IC50, IL-6 production",7.46
same,pIC50,"subject C, read-out: IC50, IL-8 production",7.09
same,pIC50,"subject C, read-out: IC50, TNF-α production",7.49
